Results from ChEMBL document CHEMBL4382242, “Novel racemosin B derivatives as new therapeutic agents for aggressive breast cancer” (Bioorg Med Chem, 2018).

Each compound was assayed on MCF7 (assay: Growth inhibition of human MCF7 cells after 72 hrs by MTT assay). Conditions: MCF7, 72 h.
Format: functional, cell-based

SMILES	IC50 [µM]
CN(C)CCNC(=O)c1cc2c3ccccc3[nH]c2c2c1[nH]c1cc(Cl)ccc12	8.03
COC(=O)c1cc2c3ccccc3[nH]c2c2c1[nH]c1ccc(OC)cc12	> 40
O=C(NCCNCCO)c1cc2c3ccccc3[nH]c2c2c1[nH]c1ccccc12	4.85
CN(C)CCN(C)C(=O)c1cc2c3ccccc3[nH]c2c2c1[nH]c1ccccc12	6.3
O=C(NCc1ccccn1)c1cc2c3ccccc3[nH]c2c2c1[nH]c1ccccc12	22.7
O=C(NCCN1CCCC1)c1cc2c3ccccc3[nH]c2c2c1[nH]c1cc(Cl)ccc12	8.4
COC(=O)c1cc2c3ccccc3[nH]c2c2c1[nH]c1ccccc12	> 40
COC(=O)c1cc2c3ccccc3[nH]c2c2c1[nH]c1ccc(Br)cc12	> 40
COC(=O)c1cc2c3ccccc3[nH]c2c2c1[nH]c1cc(Cl)ccc12	> 40

Now those with a lower IC50, led by results:

IC50 [µM]	SMILES
3.89	CN1CCC(NC(=O)c2cc3c4ccccc4[nH]c3c3c2[nH]c2ccccc23)CC1
3.7	CN(C)CCCNC(=O)c1cc2c3ccccc3[nH]c2c2c1[nH]c1ccccc12
3.39	CN(C)CCNC(=O)c1cc2c3ccccc3[nH]c2c2c1[nH]c1ccccc12
3.27	O=C(NCCN1CCCCC1)c1cc2c3ccccc3[nH]c2c2c1[nH]c1ccccc12
3.11	O=C(NCCN1CCCC1)c1cc2c3ccccc3[nH]c2c2c1[nH]c1ccccc12
2.39	CCN(CC)CCNC(=O)c1cc2c3ccccc3[nH]c2c2c1[nH]c1ccccc12

The compounds below were run on MDA-MB-231 (assay: Growth inhibition of human MDA-MB-231 cells after 72 hrs by MTT assay). Conditions: MDA-MB-231, 72 h.
Format: functional, cell-based

SMILES	IC50 [µM]
CN(C)CCNC(=O)c1cc2c3ccccc3[nH]c2c2c1[nH]c1cc(Cl)ccc12	4.51
COC(=O)c1cc2c3ccccc3[nH]c2c2c1[nH]c1ccc(OC)cc12	> 40
O=C(NCCNCCO)c1cc2c3ccccc3[nH]c2c2c1[nH]c1ccccc12	2.05
CN(C)CCN(C)C(=O)c1cc2c3ccccc3[nH]c2c2c1[nH]c1ccccc12	2.93
O=C(NCc1ccccn1)c1cc2c3ccccc3[nH]c2c2c1[nH]c1ccccc12	7.92
O=C(NCCN1CCCC1)c1cc2c3ccccc3[nH]c2c2c1[nH]c1cc(Cl)ccc12	5.7
COC(=O)c1cc2c3ccccc3[nH]c2c2c1[nH]c1ccccc12	> 40
COC(=O)c1cc2c3ccccc3[nH]c2c2c1[nH]c1ccc(Br)cc12	> 40
COC(=O)c1cc2c3ccccc3[nH]c2c2c1[nH]c1cc(Cl)ccc12	> 40

Other lines, results leading:

IC50 [µM]	SMILES
1.62	CN1CCC(NC(=O)c2cc3c4ccccc4[nH]c3c3c2[nH]c2ccccc23)CC1
4.48	CN(C)CCCNC(=O)c1cc2c3ccccc3[nH]c2c2c1[nH]c1ccccc12
1.43	CN(C)CCNC(=O)c1cc2c3ccccc3[nH]c2c2c1[nH]c1ccccc12
1.72	O=C(NCCN1CCCCC1)c1cc2c3ccccc3[nH]c2c2c1[nH]c1ccccc12
1.41	O=C(NCCN1CCCC1)c1cc2c3ccccc3[nH]c2c2c1[nH]c1ccccc12
1.71	CCN(CC)CCNC(=O)c1cc2c3ccccc3[nH]c2c2c1[nH]c1ccccc12
